# From EPA's ToxRefDB 2
# How the values were obtained:
# dog [1] = conditions: Chronic toxicity; beagle; Oral; Feed; dose end: 53 week; group: systemic; systemic / pathology microscopic / stomach / [other] + systemic / pathology microscopic / stomach / inflammation
# mouse [2] = conditions: Carcinogenicity, cd1, Oral, Feed, dose end: 18 month, group: systemic
# dog [3] = conditions: Subchronic oral toxicity in nonrodent, beagle, Feed, dose end: 13 week, group: systemic, systemic / clinical chemistry / alanine aminotransferase (alt/sgpt) / alanine aminotransferase (alt/sgpt) + systemic / clinical chemistry / …
# rat [4] = conditions: Combined chronic toxicity/carcinogenicity, wistar, Oral, Feed, dose end: 24 month, group: systemic
# rat [5] = conditions: Combined chronic toxicity/carcinogenicity; sprague dawley; Oral; Feed; dose end: 24 month; group: systemic; systemic / in life observation / body weight / body weight gain
# rat [6] = conditions: Prenatal developmental toxicity study, sprague dawley, Oral, Gavage/Intubation, dose end: 19 GD
# dog [7] = conditions: Subchronic oral toxicity in nonrodent, beagle, Feed, dose end: 26 week, group: systemic
# mouse [8] = conditions: Carcinogenicity, cd1, Oral, Feed, dose end: 24 month, group: systemic
# rat [9] = conditions: Subchronic oral toxicity in rodents, other, Feed, dose end: 13 week, group: systemic
# rat [10] = conditions: Prenatal developmental toxicity study, sprague dawley, Oral, Gavage/Intubation, dose end: 15 GD
# rat [11] = conditions: Multigenerational reproductive toxicity study, sprague dawley, Oral, Feed, dose end: 2 generation
# rat [12] = conditions: Subchronic oral toxicity in rodents, fischer, Feed, dose end: 13 week, group: systemic
# mouse [13] = conditions: Combined chronic toxicity/carcinogenicity, other, Oral, Feed, dose end: 95 week, group: systemic
# dog [14] = conditions: Subchronic oral toxicity in nonrodent, beagle, Feed, dose end: 184 day, group: systemic, systemic / clinical chemistry / [other] / [other] + systemic / clinical chemistry / aspartate aminotransferase (ast/sgot) / aspartate …
# dog [15] = conditions: Chronic toxicity; beagle; Oral; Feed; dose end: 52 week; group: systemic; systemic / clinical chemistry / creatinine / creatinine + systemic / clinical chemistry / urea nitrogen / urea nitrogen
# dog [16] = conditions: Subchronic oral toxicity in nonrodent, beagle, Feed, dose end: 228 day, group: systemic, systemic / pathology microscopic / kidney / eosinophilic focus + systemic / pathology microscopic / kidney / pigmentation + systemic / …
# [17] = systemic / clinical chemistry / chloride / chloride + systemic / hematology / erythrocyte (rbc) count differential / erythrocyte (rbc) + …
# [18] = systemic / clinical chemistry / urea nitrogen / urea + systemic / clinical chemistry / phosphorus / phosphorus
# [19] = group: developmental, developmental / developmental malformation / bone / [other] + developmental / developmental malformation / bone / unossified
# [20] = group: maternal, systemic / in life observation / body weight / body weight gain + systemic / in life observation / clinical signs / nasal discharge + …
# [21] = systemic / in life observation / body weight / body weight + systemic / in life observation / body weight / body weight gain
# [22] = systemic / in life observation / body weight / body weight + systemic / in life observation / body weight / body weight gain + systemic / …
# [23] = systemic / organ weight / liver / absolute + systemic / organ weight / liver / relative to body weight
# [24] = group: developmental, developmental / developmental malformation / bone / brachycephaly + developmental / developmental malformation / bone / delayed ossification…
# [25] = group: maternal, systemic / in life observation / clinical signs / [other] + systemic / in life observation / clinical signs / alopecia + systemic / in life …
# [26] = group: offspring, developmental / developmental malformation / bone / exencephaly + developmental / developmental malformation / eye / ablepharia
# [27] = group: offspring, developmental / developmental malformation / bone / exencephaly + developmental / developmental malformation / eye / ablepharia + …
# [28] = group: parental, systemic / pathology microscopic / kidney / degeneration
# [29] = group: parental, systemic / pathology microscopic / kidney / degeneration + systemic / in life observation / body weight / body weight + systemic / in life …
# [30] = group: reproductive, reproductive / offspring survival early / litter size / litter size
# [31] = systemic / pathology microscopic / kidney / degeneration + systemic / hematology / platelet / platelet + systemic / in life observation / …
smiles,measurement,setting,value
COC(=O)c1ccc(CNS(C)(=O)=O)cc1S(=O)(=O)NC(=O)Nc1nc(OC)cc(OC)n1 [Mesosulfuron-methyl],LEL,dog [1],574 mg/kg/day
same,LOAEL,dog [1],574 mg/kg/day
same,NEL,dog [1],155 mg/kg/day
same,NOAEL,dog [1],155 mg/kg/day
same,LOAEL,mouse [2]; [17],> 1070 mg/kg/day
same,NEL,mouse [2]; [17],10.6 mg/kg/day
same,NOAEL,mouse [2]; [17],≥ 1070 mg/kg/day
same,LEL,mouse [2]; systemic / clinical chemistry / chloride / chloride + systemic / hematology / leukocyte (wbc) count differential / leukocyte (wbc),103 mg/kg/day
same,LEL,dog [3],648 mg/kg/day
same,LOAEL,dog [3],> 648 mg/kg/day
same,NEL,dog [3],348 mg/kg/day
same,NOAEL,dog [3],≥ 648 mg/kg/day
same,LEL,rat [4]; systemic / clinical chemistry / urea nitrogen / urea,73.8 mg/kg/day
same,LOAEL,rat [4]; [18],> 764 mg/kg/day
same,NEL,rat [4]; [18],7.46 mg/kg/day
same,NOAEL,rat [4]; [18],≥ 764 mg/kg/day
Nc1nc(N)nc(NC2CC2)n1 [Cyromazine],LEL,rat [5],15 mg/kg/day
same,LOAEL,rat [5],15 mg/kg/day
same,NEL,rat [5],1.5 mg/kg/day
same,NOAEL,rat [5],1.5 mg/kg/day
same,LEL,rat [6]; [19],600 mg/kg/day
same,LOAEL,rat [6]; [19],600 mg/kg/day
same,NEL,rat [6]; [19],300 mg/kg/day
same,NOAEL,rat [6]; [19],300 mg/kg/day
same,LOAEL,"rat [6]; group: maternal, systemic / in life observation / body weight / body weight gain + systemic / in life observation / clinical signs / nasal discharge",300 mg/kg/day
same,LEL,rat [6]; [20],300 mg/kg/day
same,NEL,rat [6]; [20],100 mg/kg/day
same,NOAEL,rat [6]; [20],100 mg/kg/day
same,LOAEL,dog [7]; systemic / in life observation / body weight / body weight + systemic / hematology / hematocrit (hct) / hematocrit (hct) + systemic / …,75 mg/kg/day
same,LEL,dog [7]; [21],0.75 mg/kg/day
same,NEL,dog [7]; [21],< 0.75 mg/kg/day
same,NOAEL,dog [7]; [22],7.5 mg/kg/day
same,LOAEL,mouse [8]; systemic / in life observation / body weight / body weight,150 mg/kg/day
same,LEL,mouse [8]; [21],150 mg/kg/day
same,NEL,mouse [8]; [22],7.5 mg/kg/day
same,NOAEL,mouse [8]; [22],7.5 mg/kg/day
same,LEL,rat [9]; [23],3 mg/kg/day
same,LOAEL,rat [9]; [23],30 mg/kg/day
same,NEL,rat [9]; [23],< 3 mg/kg/day
same,NOAEL,rat [9]; systemic / organ weight / liver / absolute + systemic / organ weight / liver / relative to body weight + systemic / clinical chemistry / …,3 mg/kg/day
O=C(O)COc1nc(Cl)c(Cl)cc1Cl [Triclopyr],LEL,rat [10]; [24],200 mg/kg/day
same,LOAEL,rat [10]; [24],200 mg/kg/day
same,NEL,rat [10]; [24],100 mg/kg/day
same,NOAEL,rat [10]; [24],100 mg/kg/day
same,LEL,rat [10]; [25],50 mg/kg/day
same,LOAEL,rat [10]; [25],50 mg/kg/day
same,NEL,rat [10]; [25],< 50 mg/kg/day
same,NOAEL,rat [10]; [25],< 50 mg/kg/day
same,LEL,rat [11]; [26],25 mg/kg/day
same,LOAEL,rat [11]; [26],25 mg/kg/day
same,NEL,rat [11]; [27],2 mg/kg/day
same,NOAEL,rat [11]; [27],2 mg/kg/day
same,LEL,rat [11]; [28],25 mg/kg/day
same,LOAEL,rat [11]; [28],25 mg/kg/day
same,NEL,rat [11]; [29],2 mg/kg/day
same,NOAEL,rat [11]; [29],2 mg/kg/day
same,LEL,rat [11]; [30],250 mg/kg/day
same,LOAEL,rat [11]; [30],> 250 mg/kg/day
same,NEL,rat [11]; [30],25 mg/kg/day
same,NOAEL,rat [11]; [30],≥ 250 mg/kg/day
same,LOAEL,rat [12]; systemic / pathology microscopic / kidney / degeneration,20 mg/kg/day
same,NEL,rat [12]; [31],5 mg/kg/day
same,NOAEL,rat [12]; [31],5 mg/kg/day
same,LEL,rat [12]; systemic / pathology microscopic / kidney / degeneration + systemic / in life observation / body weight / body weight + systemic / in life …,20 mg/kg/day
same,NEL,mouse [13]; systemic / in life observation / body weight / body weight + systemic / urinalysis / protein / protein + systemic / urinalysis / specific …,2.5 mg/kg/day
same,NOAEL,mouse [13]; systemic / organ weight / kidney / absolute + systemic / organ weight / pituitary gland / absolute,12.5 mg/kg/day
same,LOAEL,mouse [13]; systemic / organ weight / kidney / absolute + systemic / organ weight / pituitary gland / absolute + systemic / in life observation / body …,62.5 mg/kg/day
same,LEL,mouse [13]; systemic / urinalysis / protein / protein + systemic / clinical chemistry / urea nitrogen / urea nitrogen + systemic / pathology gross / …,12.5 mg/kg/day
same,LEL,dog [14],2.5 mg/kg/day
same,LOAEL,dog [14],2.5 mg/kg/day
same,NEL,dog [14],0.5 mg/kg/day
same,NOAEL,dog [14],0.5 mg/kg/day
same,LEL,dog [15],2.5 mg/kg/day
same,LOAEL,dog [15],2.5 mg/kg/day
same,NEL,dog [15],0.5 mg/kg/day
same,NOAEL,dog [15],0.5 mg/kg/day
same,LEL,dog [16],5 mg/kg/day
same,LOAEL,dog [16],5 mg/kg/day
same,NEL,dog [16],< 5 mg/kg/day
same,NOAEL,dog [16],< 5 mg/kg/day
